Results as given in paper PMC10327518 (Journal of Enzyme Inhibition and Medicinal Chemistry, 2023).
Several values for one entry are separate records, joined by “and”; a condition that tells them apart may be missing. Equal values may be shown once. Read-outs that look alike come from different tables or passages of the source.

Legend:
[1] = molecular target: T1, eeAChE (electric eel AChE) (Electrophorus electricus, UniProt O42275); assay: biochemical; settings: for inhibition at 25 µM: read-out: Inhibition percent rate eeAChE
T1 construct: purchased Sigma-Aldrich Co; host or cells: electric eel (natural source)
T1 sequence (O42275 24-633): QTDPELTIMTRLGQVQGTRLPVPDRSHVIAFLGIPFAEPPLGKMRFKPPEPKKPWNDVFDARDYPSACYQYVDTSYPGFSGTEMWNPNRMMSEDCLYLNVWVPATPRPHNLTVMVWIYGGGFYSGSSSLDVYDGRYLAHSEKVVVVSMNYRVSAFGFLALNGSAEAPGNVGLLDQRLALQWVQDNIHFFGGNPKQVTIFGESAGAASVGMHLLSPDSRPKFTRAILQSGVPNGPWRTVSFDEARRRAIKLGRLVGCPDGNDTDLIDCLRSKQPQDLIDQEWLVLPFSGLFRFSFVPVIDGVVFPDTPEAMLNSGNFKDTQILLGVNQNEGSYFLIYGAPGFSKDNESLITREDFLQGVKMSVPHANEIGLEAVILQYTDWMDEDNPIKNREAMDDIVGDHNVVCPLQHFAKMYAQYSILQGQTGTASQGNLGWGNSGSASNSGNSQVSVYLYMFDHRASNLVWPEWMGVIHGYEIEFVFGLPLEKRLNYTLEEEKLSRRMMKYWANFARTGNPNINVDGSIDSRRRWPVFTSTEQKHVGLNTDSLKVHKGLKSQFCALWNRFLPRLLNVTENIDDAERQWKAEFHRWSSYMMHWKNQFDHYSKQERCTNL
Protocol: (§1) 2.1 Inhibition experiments of AChE and BuChE. The modified Ellman method was
(§2) performed to test the AChE and BChE inhibitory ability of the compounds, using
(§3) eeAChE and eqBChE (Sigma-Aldrich Co.). […]

[2] = molecular target: T2, eqBuChE (equine serum BuChE) (Equus caballus, UniProt P81908); assay: biochemical; settings: for SI: SI = IC50 (AChE)/IC50 (BuChE); for inhibition at 25 µM: read-out: Inhibition percent rate eqBuChE
T2 construct: purchased Sigma-Aldrich Co; host or cells: equine serum (natural source)
T2 sequence (P81908 whole entry): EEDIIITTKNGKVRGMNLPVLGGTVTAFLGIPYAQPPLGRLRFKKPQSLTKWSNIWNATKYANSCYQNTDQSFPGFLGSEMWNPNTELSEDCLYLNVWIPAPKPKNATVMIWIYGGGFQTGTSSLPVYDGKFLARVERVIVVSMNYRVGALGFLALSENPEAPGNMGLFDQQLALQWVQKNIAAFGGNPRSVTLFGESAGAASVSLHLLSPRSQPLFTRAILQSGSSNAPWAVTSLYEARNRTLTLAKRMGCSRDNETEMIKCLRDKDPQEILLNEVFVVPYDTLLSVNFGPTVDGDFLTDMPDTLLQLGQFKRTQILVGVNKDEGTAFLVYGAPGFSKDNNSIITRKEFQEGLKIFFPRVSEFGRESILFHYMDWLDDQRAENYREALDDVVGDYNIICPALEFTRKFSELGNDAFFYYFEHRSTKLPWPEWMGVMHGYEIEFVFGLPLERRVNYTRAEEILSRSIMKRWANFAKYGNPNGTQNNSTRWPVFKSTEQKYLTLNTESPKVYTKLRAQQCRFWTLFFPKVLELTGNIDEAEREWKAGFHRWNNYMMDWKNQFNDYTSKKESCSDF
Protocol: as §1, §2, §3

cholinesterase = molecular target: cholinesterase; set-up: method as in PMID 11429429; settings: read-out: IC50 anticholinesterase activity; cited from earlier work
[3] = test system: scopolamine-induced cognitive dysfunction in mice; assay: Step-down passive avoidance task, scopolamine-induced cognitive dysfunction; format: in vivo
Protocol: The in vivo effects of 5a were determined through the step-down passive avoidance task. […]. page 9: […]
Assay method. The step-down passive avoidance task was employed to investigate
the effects of 5a on scopolamine-induced memory impairment.21,22 Sixty mice were
random divide into six groups. […]

eqBuChE = molecular target: T3, eqBuChE (Equus caballus, UniProt P81908); format: biochemical, equine
T3 construct: purchased Sigma-Aldrich Co; host or cells: equine serum (natural source)
T3 sequence (P81908 whole entry): as above
Description: Further, the recovery capability of BuChE inhibitory effect after dilution was monitored by time.
Figure 2.

BV-2 cells = assay: Cytotoxicity on BV-2 cells, CCK-8 assay; format: cell-based; settings: at 10 μM
Protocol: 5a was chosen to evaluate the anti-inflammation property through testing the production of IL-1β, IL-6, and NO in LPS-induced BV-2 cells[25]^,[26]. First of all, the cytotoxicity of 5a was determined through the CCK-8 assay.
2.1 Inhibition experiments of AChE and BuChE. The modified Ellman method was performed to test the AChE and BChE inhibitory ability of the compounds, using eeAChE and eqBChE (Sigma-Aldrich Co.). The detailed procedure referenced our […]
2.2 Anti-inflammatory property. BV-2 cells were cultured in DMEM containing 10% fetal bovine serum, 100 U/mL penicillin, 100 U/mL streptomycin, and 1% nonessential amino acid at 37℃ with 5% CO2.
BV-2 cells in logarithmic growth stage were digested and centrifuged, and then resuspended in DMEM medium containing 1% penicillin-streptomycin and 10% fetal bovine serum. The cells was adjusted to 1.2 × 10^4 cells/well, and then seeded evenly in 96-well cell culture plates. The cells were incubated for 36 h at 37℃ with 5% CO2. […]
BV-2 cells (2 × 10^5 cells/well) were seeded in a 24-well cell culture plates. […] The content of NO in cell culture supernatant was determined by Griess method, and the levels of cytokines IL-6 and IL-1β in cell culture supernatant were determined by IL-6 ELISA kit and IL-1β ELISA kit, respectively.

[4] = test system: IL-6 production in LPS-stimulated BV-2 cells; assay: IL-6 production in LPS-stimulated BV-2 cells (ELISA); format: cell-based; settings: LPS 1 μg/mL
[5] = test system: IL-1β production in LPS-stimulated BV-2 cells; assay: IL-1β production in LPS-stimulated BV-2 cells (ELISA); format: cell-based
[6] = test system: NO release in LPS-stimulated BV-2 cells; assay: NO release in LPS-stimulated BV-2 cells (Griess method); format: cell-based; settings: 1, 3, and 9 μM; LPS 1 μg/mL (model 31.9 μM)
PC12 cells = assay: Cytotoxicity on PC12 cells, CCK-8 assay; format: cell-based; settings: at 30 μM
Description: (§4) 2.3 Neuroprotective effects on Aβ25-35-induced PC12 cells injury.
(§5) (1) Materials and reagents. PC12 cell (Purchased from the Cell Bank of Shanghai
(§6) Institute of Cell Biology, Chinese Academy of Sciences),
(§7) DME H-21 4.5g/Liter Glucose(Gibco), Fetal bovine serum (Vicente),
(§8) cellcountingkit-8, CCK8(Shanghai Biyuntian Biotechnology Co. , Ltd), 1%
(§9) penicillin-streptomycin (Double antibody, cellmax), Double antibody (Beijing
(§10) Co., Ltd), a phosphate -buffered solution , (PBS, Beijing Solebao Technology Co., Ltd),
(§11) (2) Istrument. Cell culture incubator(Thermo Scientific), Ultra-clean
(§12) workbench(Jiangsu Sujing Group Co., Ltd), Inverted phase-contrast fluorescence
(§13) microscope(Japan Nikon Corporation), Varioska full-wavelength multifunction
(§14) microplate reader(Thermo Scientific), Digital display constant temperature water bath
(§15) pot(Bangsi Instrument Technology Co., Ltd), 1/100,000 electronic balance(Shanghai
Jinghai Instrument Co., Ltd).
(§16) In this experiment, the cell viability was detected using CCK-8 kit and
(§17) (3) PC12 Cell complete medium formulation. Recover PC12 cells, use 10% fetal
(§18) bovine serum 50mL, 5% equine serum 25mL and 1% penicillin mixture 5mL, and
(§19) finally add DMEM high-sugar medium solution to 500mL, that is, to obtain.
(§20) (4) PC12 Cell Recover. Quickly remove the cells from the -80 °C freezer, shake
in a 37 °C water bath pot to dissolve quickly, disinfect the cryopreservation tube and […]

[7] = Stability in artificial gastrointestinal fluids; format: in vitro ADME; settings: 37 °C
Protocol: Based on the above data, 5a was chosen to evaluate the stabilities by artificial gastrointestinal solution, blood plasma, and rat liver microsomes.
Cell viability(%) = (Asample-Ablank)/(Acontrol-Ablank) ×100%. Asample, Ablank and Acontrol
medium, or vehicle, respectively.
method described in China Pharmacopoeia (version 2015). The artificial gastric fluid
described above without pepsin and trypsin. Compound 5a (1 mg/mL, n = 3) was
Supernatant was collected by
were processed by GraphPad Prism 8.0 software.
Solution B (25 mL) contained

[8] = Rat liver microsomes stability; format: in vitro ADME; settings: n = 3, read-out: t1/2 in rat liver microsomes
Protocol: microsomes was purchased from Dalian Meilun Biotechnology Co., Ltd, DaLian,
China. Briefly, solution A (10 mL) contained G-6-P-Na2 (200 mg), NADPNa2 (200
G-6-P-DH (1000 U), Na-Citrate2 (200 mg), and H2O was used as a solvent. NADPH
solution (1 mM) was composed by solution A and solution B (v/v = 5:1). Compound
was dissolved in DMSO to obtain 1 mg/mL stock solution. Rat liver microsomes was
added to compound solution (the final concentration of compound and rat liver
microsomes was 10 μg/mL and 0.5 mg/mL, respectively) (n = 3). The reaction was
started by the addition of NADPH. The total mixture (200 μL) was incubated at 37 °C.
Cold methanol (600 μL) was added at 0, 5, 15, 20, 30, 45 and 60 min , respectively, to
stop the reaction. Samples were centrifuged at 13000 rpm fo r 10 min at 4 °C, and 100
μL supernatant was removed and analyzed by UPLC-MS/MS. The stability results
were presented as % remaining vs. time.

Plasma stability = format: in vitro ADME; settings: rat, n = 3, read-out: t1/2 in blood plasma (converted)
Protocol: (3) The stability of compound was performed in rat plasma.
mg/mL) were dissolved in DMSO, and the reaction (10 μg/mL, n = 3) was prepared
by mixing 198 μL plasma with 2 μL compounds solution, then incubated in 37 ◦C and
stopped by adding 600 μL methanol at time of 0, 0.5, 1, 1.5, 2 and 3 h, followed by
centrifugation at 13,000 rpm for 10 min at 4 °C. The supernatant was dried and
redissolved in 100 μL methanol. After centrifugation, the supernatant was analyzed
by UPLC-MS/MS. The stability data was presented as remaining percentage vs time.

[9] = test system: Aβ25-35-induced PC12 cell injury; assay: cells; settings: Rattus norvegicus, PC-12, read-out: PC12 cells viability
Description: as §4, §5, §6, §7, §8, §9, §10, §11, §12, §13, §14, §15
Jinghai Instrument Co., Ltd).
as §16, §17, §18, §19, §20
in a 37 °C water bath pot to dissolve quickly, disinfect the cryopreservation tube and
transfer it to the ultra-clean table, transfer the cryopreservation in the cryopreservation
tube to a 15 mL centrifuge tube, add 3 mL of complete medium, gently blow well
with a pipette, centrifuge at 1000 *g at room temperature for 5 min, discard the upper
layer of medium, add 4 mL complete medium again, gently blow well and transfer to
the culture flask, transfer to the incubator at 37 °C, 5% CO2, saturation humidity, and
change the liquid every other day.
(5) PC12 Cell Passage. During the logarithmic growth phase of cell growth, add
complete medium to stop digestion, transfer to a 15 mL centrifuge tube, centrifuge at
1000 *g at room temperature for 5 min, discard the upper layer medium, 1:4
(7) Preparation of sample solutions. […]

Kunming mice = assay: Acute toxicity (safety profile) in mice; settings: 500 mg/kg, intragastric administration
Protocol: gender) were supplied by the Center of Experimental Animals of Sichuan Academy of
Chinese Medicine Sciences (eligibility certiﬁcation no. SCXK-Chuan2018-19). Mice
20−22 °C with a relative humidity of 60−70%. Sterile food and water were provided
according to institutional guidelines. Prior to each experiment, mice were fasted
overnight and allowed free access to water.
1000 mg/kg (n = 6 per group) by intragastric administration. After the administration
occasionally thereafter for 14 days for the onset of any delayed effects. All animals
were sacrificed on the 14th day after drug administration and were macroscopically

[10] = mean ± SD, read-out: IC50 ± SD eeAChE
[11] = mean ± SD, read-out: IC50 ± SD eqBuChE

## CC(C)N(C(=O)Oc1ccc(C(=O)N2CCC(Cc3ccccc3)CC2)c(OC(=O)N(C(C)C)C(C)C)c1)C(C)C [Compound 5c, 4-(4-Benzylpiperidine-1-carbonyl)-1,3-phenylene bis(diisopropylcarbamate)]
[1]; [10]
  IC50: 7.1 ± 0.23 µM
[2]
  SI: 0.66
[2]; [11]
  IC50: 10.8 ± 0.56 µM

## CN(C)C(=O)Oc1ccc(OC(=O)N(C)C)c(C(=O)N2CCC(Cc3ccccc3)CC2)c1 [Compound 5f, 2-(4-Benzylpiperidine-1-carbonyl)-1,4-phenylene bis(dimethylcarbamate)]
[1]
  IC50: 5.2 ± 0.35 µM
[2]
  IC50: 16.3 ± 0.86 µM
  SI: 0.32

## CCN(C)C(=O)Oc1ccc(OC(=O)N(C)CC)c(C(=O)N2CCC(Cc3ccccc3)CC2)c1 [Compound 5g, 2-(4-Benzylpiperidine-1-carbonyl)-1,4-phenylene bis(ethyl(methyl)carbamate)]
[1]
  IC50: 4.9 ± 0.68 µM
[2]
  IC50: 13.5 ± 0.52 µM
  SI: 0.36

## O=C(O)c1cc(O)ccc1O [Compound 1b, 2,5-dihydroxybenzoic acid]
[1]
  inhibition at 25 µM: 20.6 ± 1.2%
[2]
  inhibition at 25 µM: 18.2 ± 0.67%

## O=C(O)c1ccc(O)cc1O [Compound 1a, 2,4-dihydroxybenzoic acid]
[1]
  inhibition at 25 µM: 16.3 ± 0.17%
[2]
  inhibition at 25 µM: 25.8 ± 0.93%

## O=C(O)c1ccccc1O [SA, Salicylic acid]
cholinesterase
  IC50: 346 µM

## COc1cc2c(cc1OC)C(=O)C(CC1CCN(Cc3ccccc3)CC1)C2 (stereo not drawn) [Donepezil, donepezil, reference compound]
[3]; donepezil 2.0 mg/kg, scopolamine 2.0 mg/kg (model 42.1 s)
  Step-down latency: 144.3 s

## CCN(C)C(=O)Oc1cccc([C@H](C)N(C)C)c1 [Rivastigmine, rivastigmine, reference compound]
eqBuChE
  BChE activity (% control): 53.2 % control and 49.8 % control
  BuChE activity recovered: 68.7%
  Type of inhibition (reversibility): pseudo-irreversible
  eqBuChE activity restored: no significant recovery

## O=C(Oc1ccc(C(=O)N2CCC(Cc3ccccc3)CC2)c(OC(=O)N2CCCC2)c1)N1CCCC1 [Compound 5d, 4-(4-Benzylpiperidine-1-carbonyl)-1,3-phenylene bis(pyrrolidine-1-carboxylate)]
[1]; [10]
  IC50: 22.3 ± 1.8 µM
[2]
  SI: 2.6
[2]; [11]
  IC50: 8.7 ± 0.93 µM

## CCN(C)C(=O)Oc1ccc(C(=O)N2CCC(Cc3ccccc3)CC2)c(OC(=O)N(C)CC)c1 [Compound 5b, 4-(4-Benzylpiperidine-1-carbonyl)-1,3-phenylene bis(ethyl(methyl)carbamate)]
[1]
  IC50: 6.3 ± 0.41 µM
[2]
  IC50: 2.6 ± 1.8 µM
  SI: 2.4

## CN(C)C(=O)Oc1ccc(C(=O)N2CCC(Cc3ccccc3)CC2)c(OC(=O)N(C)C)c1 [Compound 5a, 4-(4-Benzylpiperidine-1-carbonyl)-1,3-phenylene bis(dimethylcarbamate)]
[1]
  IC50: 7.8 ± 0.36 µM
[2]
  IC50: 0.53 ± 0.01 µM
  SI: 14.7
eqBuChE; 0.1 × IC50, at 120 min, Figure 2(B)
  BuChE activity recovered: 63.9%
eqBuChE; 1*IC50, Figure 2(A)
  BChE activity (% control): 48.6 % control
eqBuChE; after dilution to 0.1 × IC50, text on Figure 2(A)
  eqBuChE activity restored: no significant recovery
eqBuChE; diluted to 0.1*IC50, Figure 2(A)
  BChE activity (% control): 46.7 % control
eqBuChE; from recovery after dilution
  Type of inhibition (reversibility): pseudo-irreversible
BV-2 cells
  Cytotoxicity on BV-2 cells: did not produce significant cytotoxicity
[4]; 5a 3 μM
  Level of IL-6: 505.3 pg/mL
[4]; 5a 9 μM
  Level of IL-6: 971.1 pg/mL
[5]; 5a 1 μM, LPS 1 μg/mL (model 302.7 pg/mL)
  Level of IL-1β: 67.2 pg/mL
[5]; 5a 3 μM, LPS 1 μg/mL
  Level of IL-1β: 90.9 pg/mL
[5]; 5a 9 μM, LPS 1 μg/mL
  Level of IL-1β: 163.4 pg/mL
[6]
  Release volume of NO: remarkably declined
PC12 cells
  Cytotoxicity on PC12 cells: no obvious cytotoxicity
[7]; after 8 h incubation in artificial gastric juice
  Residual amount: 95.6%
[7]; after 8 h incubation in artificial intestinal juice
  Residual amount: 110.6%
[7]; after 8 h incubation in blank gastric juice
  Residual amount: 99.5%
[7]; after 8 h incubation in blank intestinal juice
  Residual amount: 97.5%
[8]
  half-life at 10 μg/mL: 0.32 h
Plasma stability
  half-life at 10 μg/mL: 3.25 h
[3]; 5a 1.23 mg/kg, scopolamine 2.0 mg/kg
  Step-down latency: 140.1 s
[3]; 5a 2.45 mg/kg, scopolamine 2.0 mg/kg
  Step-down latency: 77.8 s
[3]; 5a […], scopolamine 2.0 mg/kg
  Step-down latency: 105.2 s
[9]
  viability at 1 µM: 61.7%
  viability at 3 µM: 68.6%
  viability at 9 µM: 83.3%
Kunming mice
  Abnormal behaviour (safety profile): did not present abnormal behaviour

## O=C(Oc1ccc(C(=O)N2CCC(Cc3ccccc3)CC2)c(OC(=O)N2CCOCC2)c1)N1CCOCC1 [Compound 5e, 4-(4-Benzylpiperidine-1-carbonyl)-1,3-phenylene bis(morpholine-4-carboxylate)]
[1]; [10]
  IC50: 18.3 ± 0.87 µM
[2]
  SI: 1.4
[2]; [11]
  IC50: 13.1 ± 0.72 µM

## CC(C)N(C(=O)Oc1ccc(OC(=O)N(C(C)C)C(C)C)c(C(=O)N2CCC(Cc3ccccc3)CC2)c1)C(C)C [Compound 5h, 2-(4-Benzylpiperidine-1-carbonyl)-1,4-phenylene bis(diisopropylcarbamate)]
[1]; [10]
  IC50: 8.2 ± 0.67 µM
[2]
  SI: 0.49
[2]; [11]
  IC50: 16.7 ± 1.2 µM
